We go through 3 molecules from EP0937460A2, “Use of an antidiarrheal for the manufacture of a medicament for the treatment of inflammatory conditions” (Adolor Corporation, priority 1994, dated 1995).

Counter-ions that a name gives are not always drawn. Like-named read-outs stand apart in the source and are kept apart here.

Series [1] relates to TNF production. Description: Inhibition of LPS-stimulated TNF production in the human monocytic cell line THP-1 (ELISA). The conditions noted are these: for activity at 10 µM / inhibition at 10 µM: Homo sapiens; for activity at 10 µM: read-out: TNF LEVEL % Control (LPS alone), Ave. ± S.D. It counts as cell-based. The procedure:
Cultures were maintained by the addition of fresh growth medium to a T-75 or T-150 flask of cells in suspension, or by pelleting the cells and re-suspending them in the appropriate volume of fresh medium. Maximum cell density was 1.0 x 10^6 cells per mL and cultures were seeded at a minimum density of 0.2 x 10^6 cells per ml.
(§1) THP-1 cells were plated into 24-well plates at a density of 1.0 x 10^6 cells per mL in 0.5 mL medium per well. […] For measurement of IL-1α and IL-1β production, THP-1 cells were incubated with 500 ng/mL or 50 ng/mL LPS and incubated for 16 hours. Levels of secreted cytokine were measured in cell supernatants as for TNF. Cell-associated species were measured in cell lysates which were prepared by repetitive freeze-thawing of cells. For in vitro screening, drugs at 10 µM concentration were co-administered with LPS. […] Drug effects on cell viability were assessed by the MTT assay. […] Water-soluble drugs were dissolved in aqueous solutions such as RPMI or deionized H20. The final concentration of DMSO in the incubation medium was at or below 0.01% and that of ethanol was at or below 0. 1%. The effect on cell viability was evaluated by the MTT assay.

The test system of series [2] is TNF production. Description: Inhibition of LPS-stimulated TNF production in the mouse macrophage line RAW 264.7 (ELISA). In kind it is cell-based. The conditions noted are these: for activity at 10 µM: RAW264.7, 6 h, read-out: TNF LEVEL % Control (LPS alone), Ave. ± S.D.; for effectiveness against LPS-stimulated TNF production (in words): drug 10 µM. The procedure:
Cells were passaged at confluence by scraping and routinely plated at a density of 0.25 x 10^6 and 0.5 x 10^6 cells per T-75 and T-150, respectively.
Typically, RAW cells were plated at 0.25 x 10^6 cells per well of a 24-well plate, in 0.5 mL media per well on the day prior to experimentation. […] 1%. Drugs were co-administered with the stimulant, LPS. After a 6-hr incubation period with LPS ± drug (n = 3-4), the media from the experimental wells was harvested, the cells were removed by microcentrifugation, and the media assayed for TNF by ELISA. Drugs were screened at 10 µM for their ability to alter TNF production by cells stimulated with 1 µg/mL or 10 ng/mL LPS. Dexamethasone, an anti-inflammatory corticosteroid, served as the reference for inhibition of the LPS response.
(ELISA stands for enzyme-linked immunosorbent assay.)

In the next series the test system is IL-1α. Description: LPS-stimulated IL-1α production by THP-1 cells. In kind it is cell-based, human. The procedure: as §1
The subject of another series is IL-1β. Description: LPS-stimulated IL-1β production by THP-1 cells. It counts as cell-based, human. The procedure:
as §1

For the next series, the system named is THP-1 cells. Nature of the series: MTT assay of THP-1 cell viability. How it is done:
as §1
(Tetrazolium assays rely on reduction of a dye to a coloured formazan, in cell work by metabolically active cells.)

The next series concerns TNF mRNA. Nature of the series: TPA-induced TNF mRNA expression in hairless mouse skin (RT-PCR). In kind it is in vivo. The conditions noted are these: verapamil 4% w/v in ethanol, topical; 3 hour time point; p < 0.01.
In series [3] the test system is hairless mice. Nature of the series: DNCB-induced contact hypersensitivity in hairless mice, ear swelling. In kind it is in vivo, mouse. How it is done:
Similar to what has been commonly reported by other investigators, the specific protocol used in these studies involved the application of DNCB (in an acetone:olive oil 4:1 vehicle) to the skin on the posterior portion of the back of hairless mice. Five days later, DNCB was applied to the dorsal surface of the ears. At the indicated time point, the mice were euthanized, ear thickness was measured, and the samples were processed for either RNA extraction, protein analysis, or histology.
Experiments were carried out in an effort to inhibit the DNCB-induced immune reaction with various drugs. […] The left ear was similarly treated with vehicle.
The ability of amiloride to suppress DNCB-induced ear swelling was also examined. In these experiments, mice were sensitized with DNCB, and, five days later, amiloride (2% w/v in 70% propylene glycol: 30% ethanol) was applied to the right ear and vehicle to the left ear 30 minutes and 8 hours after DNCB challenge.

Another series concerns mice. Nature of the series: Skin inflammation induced by 2% sodium lauryl sulfate (SLS) in mice. The conditions noted are these: 2% SLS with near saturated verapamil. In kind it is in vivo. The procedure:
Following the 24 hour exposure, the Hilltop chambers were removed and, after 18 hours, skin thickness readings were taken. […] Table

The test system of another series is humans. Nature of the series: Skin inflammation models in humans (2% sodium laurel sulfate or 5% nickel sulfate, 24 hour patch test). In kind it is in vivo. How it is done:
Human skin inflammation was elicited by either 2% sodium laurel sulfate in normal volunteers (irritant contact dermatitis) or by 5% nickel sulfate in nickel-sensitive individuals (allergic contact dermatitis) using a 24 hour patch test. Following the elicitation, either topical verapamil formulation or a placebo formulation was applied three times daily for two consecutive days on two respective sites. At the end of the two-day topical treatment, the degree of skin inflammation (i.e., erythema, edema and blister formation was assessed by a trained dermatologist. Skin biopsies were taken from the placebo and the active sites and analyzed for skin thickness and TNF levels using immunohistochemical techniques.

A further series deals with KC mRNA. Description: TPA-induced KC mRNA expression in hairless mouse skin (RT-PCR). The conditions noted are these: verapamil 4% w/v topical; 3 hour; one of three mice; p = 0.04.
In series [4] the test system is TNF production. Description: Inhibition of TPA-stimulated TNF production in human epidermal keratinocytes (ELISA). It counts as cell-based.
Series [5] relates to hairless mice. How it is done: In addition to assessing the cytokine mRNA levels, the time course of the TPA-induced increase in skin thickness was also evaluated. This measurement was made with a micrometer using skin excised from euthanized mice. […] Further increases were typically seen 8 hours with this response being maintained through the 24 hour time point.
Three of the mice were euthanized at the 3 hour time point, and the treated sites were analyzed for TNF mRNA by RT-PCR. The fourth mouse was euthanized at a 24 hour time point, and the thickness of the treated areas of skin was measured using a micrometer.
At the 8 hours time point, the mice were euthanized, the treated areas of skin were excised, and the thickness of the skin was measured using a micrometer.

The mark [6] stands for this setting: Mus musculus, RAW cells, DRUG [10 µM], LPS at 10 ng/mL.

Broadly, the inhibition is the change of the read-out against control, counted positive when it falls.

In the case of `COc1ccc(CCN(C)CCCC(C#N)(c2ccc(OC)c(OC)c2)C(C)C)cc1OC` (racemic) [(±)-Verapamil, verapamil], the activity at 10 µM in the series on TNF production [1] (THP-1, 6 h) worked out at 46 ± 9%; in the series with TNF production [2] (setting [6]), 36 ± 1%. Moreover, the inhibition at 10 µM in the series on TNF production [1] (THP-1, read-out: inhibition of TNF production) turned out to be 54%. Further, the inhibition at 0.05 µg/mL in the series on IL-1α (Homo sapiens, THP-1, 16 h, read-out: inhibition of IL-1α levels) is 40 to 50%; in the series on IL-1β (Homo sapiens, THP-1, 16 h, read-out: inhibition of IL-1β levels), around 33%. The “THP-1 cell viability (MTT assay)” value with THP-1 cells (highest dose tested) is reported as “did not impact”. Besides, the “skin TNF mRNA levels compared to TPA alone” value in the series on TNF mRNA was “significant reduction”. Also, the “swelling of the ear after DNCB challenge” value with hairless mice [3] (verapamil 4% w/v topical, initial experiment) is recorded as “some suppression”. In the series with hairless mice [3] (verapamil 5% w/v topical, n = 6, repeated experiment), the “ear swelling after DNCB challenge” value is “significantly reduced”. The “Skin Thickness (mm, n = 4)” value in the series with mice (24 hours occlusion, read 18 hours after removal (2% SLS alone 1.23, untreated 0.59)) stood at 0.65 ± 0.09 mm. Further, the “Visual Observation” value with mice (24 hours under occlusion) is given as “Normal”. Also, the “patients in whom dermatitis resolved faster on treated sites” value with humans (challenged with 2% sodium laurel sulfate) was 2 out of 3. Besides, the “patients with skin thickness less on treated sites than placebo sites” value in the series with humans (topical verapamil three times daily for two days) was 4 out of 6. The “patients with less TNF in the skin biopsies than placebo sites” value with humans (topical verapamil three times daily for two days, immunohistochemistry) is given as 4 out of 6. For the same molecule, the “KC mRNA levels” value in the series with KC mRNA is “significant suppression”.

For the molecule `N=C(N)NC(=O)c1nc(Cl)c(N)nc1N` [Amiloride, amiloride], the activity at 10 µM is 56 ± 15% in the series on TNF production [1] (6 h, THP-1 cells, DRUG [10 µM], LPS 1 µg/mL); 75 ± 25% in the series on TNF production [2] (setting [6]); at least 100% in the series on TNF production [4] (Homo sapiens, epidermal keratinocytes, HEK cells, DRUG [10 µM], stimulation by TPA 10 ng/mL, read-out: TNF LEVEL % Control (LPS alone), Ave. ± S.D.). Moreover, the inhibition at 10 µM in the series with TNF production [1] (LPS-stimulated THP-1 cells, drug 10 µM, read-out: inhibition of TNF production) turned out to be 40%. The “effectiveness against LPS-stimulated TNF production (in words)” value was “comparatively more effective” in the series on TNF production [1] (LPS-stimulated THP-1 cells, 10 µM) and “moderately effective” in the series on TNF production [2] (RAW cells). The “IC50 value (50% of the maximal inhibition, as defined by effects at 10 µM)” value in the series with TNF production [1] (LPS-stimulated TNF production, THP-1 cells) was “within the same range”. For the same molecule, in the series on IL-1α (THP-1 cells, 10 µM), the “level of cell-associated and secreted IL-1α (in words)” value is given as “reduce the level”. For the same molecule, the “level of cell-associated and secreted IL-1β (in words)” value with IL-1β (THP-1 cells, 10 µM) is recorded as “reduce the level”. For the same molecule, the “THP-1 cell viability (MTT assay)” value in the series on THP-1 cells is “did not impact”. Moreover, the “ear thickness, % of pre-challenge values” in the series with hairless mice [3] (DNCB + amiloride 2% w/v topical (DNCB alone 135%), p < 0.002) was 113%.

On to `CN(C)C(=O)C(CCN1CCC(O)(c2ccc(Cl)cc2)CC1)(c1ccccc1)c1ccccc1` [Loperamide, 4-(p-chlorophenyl)-4-hydroxy-N,N-dimethyl-α, α-diphenyl-1-piperidine butyramide HCL], for which the activity at 10 µM in the series with TNF production [1] (THP-1, 6 h) came to 42 ± 22%; in the series with TNF production [2] (Mus musculus) it was 62 ± 32%. The inhibition at 10 µM with TNF production [1] (THP-1, read-out: inhibition of TNF production, LPS-stimulated THP-1 cells, drug 10 µM) was around 42%; in the series with TNF production [2] (Mus musculus, RAW264.7, read-out: inhibition of LPS-stimulated TNF secretion), 62%. Also, the “effectiveness against LPS-stimulated TNF production (in words)” value with TNF production [2] (RAW cells) is “lowering of TNF levels”. Besides, the “effect on TPA-stimulated levels of TNF (in words)” value with TNF production [4] (human keratinocytes, TPA 10 ng/mL, drug 10 µM) was “very effective”. Besides, in the series with THP-1 cells (highest dose tested), the “THP-1 cell viability (MTT assay)” value is “did not impact”. Moreover, the skin thickness was determined as 0.39 mm with hairless mice [5] (TPA + loperamide 7.5% solution topical, 8 hour, first experiment (vehicle 0.36 mm, TPA 0.56 mm)) and 0.57 mm in the series on hairless mice [5] (TPA + loperamide topical, second experiment (vehicle 0.39 mm, TPA 0.89 mm), p<0.01 vs. TPA alone). In addition, the “thickness of skin treated with drug alone compared to vehicle-treated skin” value in the series with hairless mice [5] (loperamide 7.5% alone, no TPA) is “unchanged”. Also, the “inhibition of the TPA-induced swelling response” value with hairless mice [5] (loperamide topical, second experiment) came out at 64%. Besides, the “TPA-induced increase in skin thickness / swelling response (in words)” value with hairless mice [5] (topical application, loperamide: 8 hour time point, first experiment) is reported as “completely inhibit”.
